In PMC8881077 (Journal of Enzyme Inhibition and Medicinal Chemistry, 2022):

Tested on: SPF Kunming mice
Assay: Acute toxicity
Assay type: in vivo
Description: Kunming mice at a body weight of 18–22 g (six weeks old, either gender) were supplied by the Centre of Experimental Animals of Sichuan Academy of Chinese Medicine Sciences (eligibility certification no. SCXK-Chuan2018-19). Mice were maintained under standard conditions with a 12 h:12 h light-dark cycle at 20−22 °C with a relative humidity of 60 − 70%. Sterile food and water were provided according to institutional guidelines. Prior to each experiment, mice were fasted overnight and allowed free access to water. […] After the administration of the compound 5f, the mice were observed continuously for the first 4 h for any abnormal behaviour and mortality changes, intermittently for the next 24 h, and occasionally thereafter for 14 days for the onset of any delayed effects. All animals were sacrificed on the 14th day after drug administration and were macroscopically examined for possible damage to the heart, liver, and kidneys.

CCN(CCCCCOc1cc(O)c2c(c1)OC(c1ccc(O)cc1)CC2=O)Cc1ccccc1 (stereo not drawn) [Compound 5f, 7-((5-(benzyl(ethyl)amino)pentyl)oxy)-5-hydroxy-2–(4-hydroxyphenyl)chroman-4-one]
acute toxicity, recovery (after 24h): returned to normal
acute toxicity, heart, liver, spleen, lung and kidney (after 7 days): no abnormalities were observed
acute toxicity, observed signs (dose of 500 mg/kg, intragastric): decreased spontaneous activity and movement, drowsiness, dyspnoea and reduced breathing rate
